# From patent US8242167B2, “Mannose derivatives for killing tumor cells” (University of Miami, priority 2006, dated 2012)
# Legend:
# fowl plague virus = conditions: chick embryo fibroblasts infected with fowl plague virus; cited from earlier work
# [1] = test system: glycoproteins (ConA binding) in SKBR3 cells; assay: HRP-conjugated ConA blot of SKBR3 cell extracts; format: cell-based, human; conditions: SKBR3, 48 hr, 8 mM sugar analog
# Procedure: (§1) Western Blot analysis. Cells were plated at 10^4 cell cm^−2 and grown under drug treatment for the indicated times. At the end of the treatment period, cells were collected and lysed with 1% SDS in 80 mM Tris-HCL (ph 7.4) buffer supplemented with a proteinase inhibitor cocktail. DNA was fragmented by sonication and protein concentrations were measured by microBCA protein assay kit (Pierce, USA). Samples were mixed with 2× Laemmli sample buffer (Bio-Rad, USA) and run on a SDS-polyacrylamide gel. Gels were transferred to nitrocellulose membranes (Amersham, USA) and probed with anti-KDEL (Stressgen, Canada) (for Grp78 and Grp94); polyclonal anti-CHOP/[…] (Santa Cruz, USA), polyclonal anti-erbB2 (DAKO, USA). Following probing, membranes were washed and incubated with an HRP conjugated secondary antibody. Chemiluminesence was detected by exposure to film. Where indicated, membranes were stripped with Stripping Buffer (Pierce, USA) and reprobed with anti-actin (Sigma, USA) primary antibody. To analyze conconavalin A (ConA) binding, the membranes were incubated with 0.2 μg/ml HRP-conjugated ConA, and chemiluminescence was detected as described.
# MCF-7, breast cancer = assay: Cytotoxicity under normoxia, MCF-7; format: cell-based; conditions: column head gives the result: resistant
# Procedure: (§2) Cytotoxicity assay. Cells were incubated for 24 hr at 37° C. in 5% CO2 at which time drug treatments began and continued for 72 hr. At this time, attached cells were trypsinized and combined with their respective culture media followed by centrifugation at 400 g for 5 min. The pellets were resuspended in 1 ml of Hanks solution and analyzed by Vi-Cell (Beckman Coulter, USA) cell viability analyzer.
# [2] = test system: MDA-MB-468, breast cancer; assay: Cytotoxicity under normoxia, MDA-MB-468; format: cell-based; conditions: column head gives the result: resistant
# Procedure: as §2
# SKBR3 cells = assay: Growth inhibitory and cytotoxicity assay in SKBR3 cells under normoxia; format: cell-based, human
# Procedure: Cytotoxicity assay and Rapid DNA Content Analysis. Cells were incubated for 24 hr at 37° C. in 5% CO2 at which time drug treatments began and were continued for 72 hr. At this time, attached cells were trypsinized and combined with their respective culture media followed by centrifugation at 400 g for 5 min. Pellets containing the cells were either resuspended in 1.5 ml of a medium/trypan blue mixture for cytotoxicity assays or propidium iodide/hypotonic citrate staining solution for determining the nuclear DNA content and cell cycle by a Coulter XL flow cytometer. A minimum of 10,000 cells were analyzed to generate a DNA distribution histogram.
# as §2
# Grp78 and Grp94 [3] = assay: Western blot of Grp78 and Grp94 in models of hypoxia A, B & C; format: cell-based
# Procedure: as §1
# Three in vitro models of hypoxia. We previously characterized three models of anaerobiosis as follows: Model A are tumor cells treated with 0.05 μg/ml of oligomycin (a mitochondrial inhibitor of ATP synthase); Model B are cells that are deficient in mitochondrial DNA and Model C are cells treated in an hypoxic (0.5% O^2) chamber (Reming Bioinstruments, Redfield, N.Y.).
# [4] = test system: MDA-MB-231, breast cancer; assay: Cytotoxicity under normoxia, MDA-MB-231; format: cell-based; conditions: column head gives the result: resistant
# Procedure: as §2
# [5] = test system: TG98, brain cancer (glioblastoma); assay: Cytotoxicity under normoxia, TG98; format: cell-based; conditions: column head gives the result: sensitive
# Procedure: as §2
# [6] = test system: S-1 & S-2, non-small cell lung cancer; assay: Cytotoxicity under normoxia, NSCLC; format: cell-based, human; conditions: normoxic conditions
# Procedure: (§3) Cell types. The Δ^0 cells were isolated by treating osteosarcoma cell line 143B (wt) with ethidium bromide for prolonged periods, as previously described (9). Because the Δ^0 cells are uridine and pyruvate auxotrophs, they were grown in DMEM (GIBCO, USA) supplemented with 10% fetal calf serum, 50 μg/ml of uridine and 100 mM sodium pyruvate. The SKBR3 cell line was obtained from Dr. Joseph Rosenblatt's laboratory at the University of Miami. The pancreatic cancer cell lines 1420 and 1469, the ovarian cancer cell line SKOV3, the cervical cancer cell line HELA, and the osteosarcoma cell line 143B were purchased from ATCC. The non-small cell lung cancer and small cell lung cancer cell lines were derived from patients by Dr. Niramol Savaraj at the University of Miami. SKBR3 and SKOV3 cells were grown in McCoy's 5A medium; 1420, 1469 and 143B were grown in DMEM (GIBCO, USA); and HELA was grown in MEM (GIBCO, USA). The media was supplemented with 10% fetal bovine serum. All cells were grown under 5% CO2 and 37° C. Cytotoxicity assay. Cells were incubated for 24 hr at 37° C. in 5% CO2 at which time drug treatments began and continued for 72 hr. […] The pellets were resuspended in 1 ml of Hanks solution and analyzed by Vi-Cell (Beckman Coulter, USA) cell viability analyzer.
# 143B, osteosarcoma = assay: Cytotoxicity under normoxia, 143B; format: cell-based, human; conditions: column head gives the result: resistant
# Procedure: as §3
# CHOP/GADD154 = assay: Western blot of CHOP/GADD154 in SKBR3 cells; format: cell-based, human; conditions: SKBR3, normoxia, 24 hrs; 8 mM sugar analog
# Procedure: as §1
# Grp78 and Grp94 [7] = assay: Western blot of Grp78 and Grp94 (unfolded protein response) in SKBR3 cells under normoxia; format: cell-based, human
# Procedure: as §1
# SKOV3, ovarian cancer = assay: Cytotoxicity under normoxia, SKOV3; format: cell-based; conditions: column head gives the result: resistant
# Procedure: as §3
# 1469, pancreatic cancer = assay: Cytotoxicity under normoxia, 1469; format: cell-based; conditions: column head gives the result: resistant
# Procedure: as §3
# erbB2 = assay: Western blot of erbB2 in SKBR3 cells; format: cell-based, human
# Procedure: as §1
# HELA, cervical cancer = assay: Cytotoxicity under normoxia, HELA; format: cell-based; conditions: column head gives the result: sensitive
# Procedure: as §3
# [8] = animal studies and preliminary Phase I results; cited from earlier work
# HEPA-1 = assay: Cytotoxicity under normoxia, HEPA-1; format: cell-based, rat; conditions: column head gives the result: resistant
# Procedure: as §2
# 1420, pancreatic cancer = assay: Cytotoxicity under normoxia, 1420; format: cell-based, human; conditions: column head gives the result: sensitive
# Procedure: (§4) Cell types. The Δ^0 cells were isolated by treating osteosarcoma cell line 143B (wt) with ethidium bromide for prolonged periods, as previously described (9). Because the Δ^0 cells are uridine and pyruvate auxotrophs, they were grown in DMEM (GIBCO, USA) supplemented with 10% fetal calf serum, 50 μg/ml of uridine and 100 mM sodium pyruvate. The SKBR3 cell line was obtained from Dr. Joseph Rosenblatt's laboratory at the University of Miami. The pancreatic cancer cell lines 1420 and 1469, the ovarian cancer cell line SKOV3, the cervical cancer cell line HELA, and the osteosarcoma cell line 143B were purchased from ATCC. The non-small cell lung cancer and small cell lung cancer cell lines were derived from patients by Dr. Niramol Savaraj at the University of Miami. SKBR3 and SKOV3 cells were grown in McCoy's 5A medium; 1420, 1469 and 143B were grown in DMEM (GIBCO, USA); and HELA was grown in MEM (GIBCO, USA). The media was supplemented with 10% fetal bovine serum. All cells were grown under 5% CO2 and 37° C.
# as §2
# human tumor xenografts = conditions: different human tumor xenografts; cited from earlier work
# tumor cell lines = assay: Toxicity survey of tumor cell lines under normoxic conditions; format: cell-based
# Procedure: as §4, §2
smiles,measurement,setting,value
"O=CC[C@@H](O)[C@H](O)[C@H](O)CO [2-DG, 2-deoxy-D-glucose]",order of potency to inhibit viral glycoprotein synthesis,fowl plague virus,2-DG>2-FDM>2-FDG
same,ConA binding of glycoproteins,[1],decrease ConA binding
same,2-DG Resistant Cell Lines (2-DG under normoxia),"MCF-7, breast cancer","MCF-7, breast cancer"
same,2-DG Resistant Cell Lines (2-DG under normoxia),[2],"MDA-MB-468, breast cancer"
same,cells killed,"SKBR3 cells; SKBR3, 12 mM, 72 hrs, normoxic conditions",60%
same,cytotoxicity measured by trypan blue exclusion,"SKBR3 cells; SKBR3, 72 hrs, normal oxygen conditions",toxic
same,2-DG Sensitive Cell Lines (2-DG under normoxia),SKBR3 cells; column head gives the result: sensitive,"SKBR3, breast cancer"
same,rank order in growth inhibiting and killing SKBR3 cells,SKBR3 cells; normoxia,2-DG>2-FDM>>>2-FDG
same,"upregulation of the UPR (Grp78, Grp94)",Grp78 and Grp94 [3]; hypoxia model C,both chaperones are upregulated
same,"upregulation of the UPR (Grp78, Grp94)",Grp78 and Grp94 [3]; hypoxia models A and B,no significant upregulation of the UPR
same,2-DG Resistant Cell Lines (2-DG under normoxia),[4],"MDA-MB-231, breast cancer"
same,2-DG Sensitive Cell Lines (2-DG under normoxia),[5],"TG98, brain cancer (glioblastoma)"
same,toxicity to NSCLC,[6],toxic
same,2-DG Resistant Cell Lines (2-DG under normoxia),"143B, osteosarcoma","143B, osteosarcoma"
same,induction of GADD154/CHOP,CHOP/GADD154,induced
same,expression of chaperones Grp78 and Grp94,"Grp78 and Grp94 [7]; SKBR3, normoxia, 24 hrs, 8 mM sugar analog, tunicamycin 1 micro g/ml",both Grp78 and Grp94 are upregulated
same,"up-regulation of GRP 78 and 94, dose dependence","Grp78 and Grp94 [7]; select tumor cells, normoxic conditions",up-regulated by 2-DG and 2-FM in a dose-dependent manner
same,2-DG Resistant Cell Lines (2-DG under normoxia),"SKOV3, ovarian cancer","SKOV3, ovarian cancer"
same,2-DG Resistant Cell Lines (2-DG under normoxia),"1469, pancreatic cancer","1469, pancreatic cancer"
same,molecular weight of erbB2,erbB2,decreased the molecular weight of erbB2
same,2-DG Sensitive Cell Lines (2-DG under normoxia),"HELA, cervical cancer","HELA, cervical cancer"
same,tolerability,[8],well-tolerated and relatively non-toxic to normal cells
same,2-DG Resistant Cell Lines (2-DG under normoxia),HEPA-1,"HEPA-1, rat hepatoma"
same,2-DG Sensitive Cell Lines (2-DG under normoxia),"1420, pancreatic cancer","1420, pancreatic cancer"
same,effect on efficacy of standard chemotherapeutic agents,human tumor xenografts,increases the efficacy of standard chemotherapeutic agents
same,tumor cell lines undergoing significant cell death,"tumor cell lines; 6 mM, normal oxygen tension",6 out of 15
same,dose at which a select number of tumor cell lines are killed,tumor cell lines; normal oxygen tension,4 mM
same,toxicity to select tumor cell types,tumor cell lines; normoxia,toxic to select tumor cell types growing under normoxia
